Assay: Evaluation of solubility in organic solvents (visual observation of complete dissolution)
Format: physicochemical
Protocol: [Evaluation of Solubility]
The evaluation of the solubility of the synthesized compound was conducted by the following method.
About 2-3 mg of the compound was precisely weighed, and each solvent was added to the compound such that a predetermined concentration of the solute (0.5 wt %, 0.3 wt %, 0.2 wt %, 0.1 wt %, 0.05 wt %, or 0.03 wt %) was reached. The resultant mixture was stirred for 30 minutes at a predetermined temperature, and then it was evaluated by visual appearance observation whether or not the solute (synthesized compound) was completely dissolved in the solvent, which was the result of the evaluation of the solubility. As the solvent, chloroform (boiling point 61° C.), toluene (boiling point 111° C.), xylene (boiling point 144° C.), mesitylene (boiling point 165° C.), chlorobenzene (boiling point 130° C.), para-chlorotoluene (boiling point 162° C.), and ortho-dichlorobenzene (boiling point 181° C.) were used.

[1] = 1-methylnaphthalene, 25° C. (room temperature)
[2] = chloroform, 25° C. (room temperature)

CCCCCCCCCCc1cc(-c2ccc(-c3c4c(c(-c5ccc(-c6ccc(C#N)c(CCCCCCCCCC)c6)s5)c5nsnc35)N=S=N4)s2)ccc1C#N [Compound (C16), 4,8-bis[5-(4-cyano-3-decylphenyl)thiophene-2-yl]benzo[1,2-c:4,5-c′]bis[1,2,5]thiadiazole]
solubility (solute concentration completely dissolved) (chlorobenzene, 80° C.): ≥ 0.3 wt %
solubility (solute concentration completely dissolved) (chloroform, 60° C.): ≥ 0.2 wt %
solubility (solute concentration completely dissolved) (ortho-dichlorobenzene, 80° C.): ≥ 0.3 wt %
solubility (solute concentration completely dissolved) (para-chlorotoluene, 80° C.): ≥ 0.3 wt %

CCCCCCCCCCCCc1cc(-c2ccc(-c3c4c(c(-c5ccc(-c6ccc(C#N)c(CCCCCCCCCCCC)c6)s5)c5nsnc35)N=S=N4)s2)ccc1C#N [Compound (C17), 4,8-bis[5-(4-cyano-3-dodecylphenyl)thiophene-2-yl]benzo[1,2-c:4,5-c′]bis[1,2,5]thiadiazole]
solubility (solute concentration completely dissolved) (chlorobenzene, 80° C.): ≥ 0.3 wt %
solubility (solute concentration completely dissolved) (chloroform, 60° C.): ≥ 0.2 wt %
solubility (solute concentration completely dissolved) (ortho-dichlorobenzene, 60° C.): ≥ 0.3 wt %
solubility (solute concentration completely dissolved) (para-chlorotoluene, 80° C.): ≥ 0.3 wt %
solubility (solute concentration completely dissolved) (xylene, 100° C.): ≥ 0.3 wt %

CCCCCCCCCCCCCCc1cc(-c2ccc(-c3c4c(c(-c5ccc(-c6ccc(C#N)c(CCCCCCCCCCCCCC)c6)s5)c5nsnc35)N=S=N4)s2)ccc1C#N [Compound (C18), 4,8-bis[5-(4-cyano-3-tetradecylphenyl)thiophene-2-yl]benzo[1,2-c:4,5-c′]bis[1,2,5]thiadiazole]
solubility (solute concentration completely dissolved) (1-methylnaphthalene, 80° C.): ≥ 0.3 wt %
solubility (solute concentration completely dissolved) (chlorobenzene, 100° C.): ≥ 0.3 wt %
solubility (solute concentration completely dissolved) (chloroform, 60° C.): ≥ 0.2 wt %
solubility (solute concentration completely dissolved) (ortho-dichlorobenzene, 80° C.): ≥ 0.3 wt %

CCCCCCCCCCCCCCCCc1cc(-c2ccc(-c3c4c(c(-c5ccc(-c6ccc(C#N)c(CCCCCCCCCCCCCCCC)c6)s5)c5nsnc35)N=S=N4)s2)ccc1C#N [Compound (C19), 4,8-bis[5-(4-cyano-3-hexadecylphenyl)thiophene-2-yl]benzo[1,2-c:4,5-c′]bis[1,2,5]thiadiazole]
solubility (solute concentration completely dissolved) [1]: ≥ 0.3 wt %
solubility (solute concentration completely dissolved) (chlorobenzene, 80° C.): ≥ 0.3 wt %
solubility (solute concentration completely dissolved) (chloroform, 60° C.): ≥ 0.2 wt %
solubility (solute concentration completely dissolved) (ortho-dichlorobenzene, 80° C.): ≥ 0.3 wt %

CCCCCCCCCCCCCCCCCCc1cc(-c2ccc(-c3c4c(c(-c5ccc(-c6ccc(C#N)c(CCCCCCCCCCCCCCCCCC)c6)s5)c5nsnc35)N=S=N4)s2)ccc1C#N [Compound (C20), 4,8-bis[5-(4-cyano-3-octadecylphenyl)thiophene-2-yl]benzo[1,2-c:4,5-c′]bis[1,2,5]thiadiazole]
solubility (solute concentration completely dissolved) (1-methylnaphthalene, 100° C.): ≥ 0.3 wt %
solubility (solute concentration completely dissolved) (chlorobenzene, 100° C.): ≥ 0.3 wt %
solubility (solute concentration completely dissolved) (chloroform, 60° C.): ≥ 0.1 wt %
solubility (solute concentration completely dissolved) (ortho-dichlorobenzene, 80° C.): ≥ 0.3 wt %

CCCC(C)CCc1cc(-c2ccc(-c3c4c(c(-c5ccc(-c6ccc(C#N)c(CCC(C)CCC)c6)s5)c5nsnc35)N=S=N4)s2)ccc1C#N (stereo not shown) [Compound (C21), 4,8-bis[5-(4-cyano-3-(3-methylhexyl)phenyl)thiophene-2-yl]benzo[1,2-c:4,5-c′]bis[1,2,5]thiadiazole]
solubility (solute concentration completely dissolved) (1-methylnaphthalene, 80° C.): ≥ 0.3 wt %
solubility (solute concentration completely dissolved) (chlorobenzene, 80° C.): ≥ 0.3 wt %
solubility (solute concentration completely dissolved) (chloroform, 60° C.): ≥ 0.2 wt %
solubility (solute concentration completely dissolved) (ortho-dichlorobenzene, 80° C.): ≥ 0.3 wt %

CCCCCCc1cc(-c2ccc(-c3c4c(c(-c5ccc(-c6cc(CCCCCC)c(C#N)c(CCCCCC)c6)s5)c5nsnc35)N=S=N4)s2)cc(CCCCCC)c1C#N [Compound (C22), 4,8-bis[5-(4-cyano-3,5-dihexylphenyl)thiophene-2-yl]benzo[1,2-c:4,5-c′]bis[1,2,5]thiadiazole]
solubility (solute concentration completely dissolved) [1]: ≥ 0.1 wt %
solubility (solute concentration completely dissolved) [2]: ≥ 0.1 wt %
solubility (solute concentration completely dissolved) (ortho-dichlorobenzene, 25° C.): ≥ 0.1 wt %
solubility (solute concentration completely dissolved) (toluene, 25° C.): ≥ 0.3 wt %

CCCCCCCCc1cc(-c2ccc(-c3c4c(c(-c5ccc(-c6ccc(C(F)(F)F)c(CCCCCCCC)c6)s5)c5nsnc35)N=S=N4)s2)ccc1C(F)(F)F [Compound (C24), 4,8-bis[5-(3-octyl-4-(trifluoromethyl)phenyl)thiophene-2-yl]benzo[1,2-c:4,5-c′]bis[1,2,5]thiadiazole]
solubility (solute concentration completely dissolved) (1-methylnaphthalene, 60° C.): ≥ 0.3 wt %
solubility (solute concentration completely dissolved) (chloroform, 60° C.): ≥ 0.2 wt %
solubility (solute concentration completely dissolved) (mesitylene, 60° C.): ≥ 0.3 wt %
solubility (solute concentration completely dissolved) (ortho-dichlorobenzene, 60° C.): ≥ 0.3 wt %
solubility (solute concentration completely dissolved) (toluene, 60° C.): ≥ 0.3 wt %

CCCCCCCCc1ccc(-c2ccc(-c3c4c(c(-c5ccc(-c6ccc(CCCCCCCC)c(C(F)(F)F)c6)s5)c5nsnc35)N=S=N4)s2)cc1C(F)(F)F [Compound (C25), 4,8-bis[5-(4-octyl-3-(trifluoromethyl)phenyl)thiophene-2-yl]benzo[1,2-c:4,5-c′]bis[1,2,5]thiadiazole]
solubility (solute concentration completely dissolved) (1-methylnaphthalene, 60° C.): ≥ 0.3 wt %
solubility (solute concentration completely dissolved) (chloroform, 60° C.): ≥ 0.2 wt %
solubility (solute concentration completely dissolved) (mesitylene, 60° C.): ≥ 0.3 wt %
solubility (solute concentration completely dissolved) (ortho-dichlorobenzene, 60° C.): ≥ 0.3 wt %
solubility (solute concentration completely dissolved) (toluene, 60° C.): ≥ 0.3 wt %

CCCCCCCCc1ccc(-c2ccc(-c3c4c(c(-c5ccc(-c6ccc(CCCCCCCC)c(C#N)c6)s5)c5nsnc35)N=S=N4)s2)cc1C#N [Compound (C26), 4,8-bis[5-(3-cyano-4-octylphenyl)thiophene-2-yl]benzo[1,2-c:4,5-c′]bis[1,2,5]thiadiazole]
solubility (solute concentration completely dissolved) (1-methylnaphthalene, 60° C.): ≥ 0.3 wt %
solubility (solute concentration completely dissolved) [2]: ≥ 0.2 wt %
solubility (solute concentration completely dissolved) (mesitylene, 80° C.): ≥ 0.3 wt %
solubility (solute concentration completely dissolved) (ortho-dichlorobenzene, 60° C.): ≥ 0.3 wt %
solubility (solute concentration completely dissolved) (toluene, 80° C.): ≥ 0.3 wt %

CCCCCCCCCCCCc1cc(-c2ccc(-c3c4c(c(-c5ccc(-c6ccc(C(F)(F)F)c(CCCCCCCCCCCC)c6)s5)c5nsnc35)N=S=N4)s2)ccc1C(F)(F)F [Compound (C27), 4,8-bis[5-(3-dodecyl-4-(trifluoromethyl)phenyl)thiophene-2-yl]benzo[1,2-c:4,5-c′]bis[1,2,5]thiadiazole]
solubility (solute concentration completely dissolved) (1-methylnaphthalene, 60° C.): ≥ 0.3 wt %
solubility (solute concentration completely dissolved) (chloroform, 60° C.): ≥ 0.1 wt %
solubility (solute concentration completely dissolved) (mesitylene, 60° C.): ≥ 0.3 wt %
solubility (solute concentration completely dissolved) (ortho-dichlorobenzene, 60° C.): ≥ 0.3 wt %
solubility (solute concentration completely dissolved) (toluene, 60° C.): ≥ 0.3 wt %

CCCCCCCCCCCCc1ccc(-c2ccc(-c3c4c(c(-c5ccc(-c6ccc(CCCCCCCCCCCC)c(C(F)(F)F)c6)s5)c5nsnc35)N=S=N4)s2)cc1C(F)(F)F [Compound (C28), 4,8-bis[5-(4-dodecyl-3-(trifluoromethyl)phenyl)thiophene-2-yl]benzo[1,2-c:4,5-c′]bis[1,2,5]thiadiazole]
solubility (solute concentration completely dissolved) (1-methylnaphthalene, 100° C.): ≥ 0.3 wt %
solubility (solute concentration completely dissolved) (chloroform, 80° C.): ≥ 0.1 wt %
solubility (solute concentration completely dissolved) (mesitylene, 100° C.): ≥ 0.3 wt %
solubility (solute concentration completely dissolved) (ortho-dichlorobenzene, 80° C.): ≥ 0.3 wt %
solubility (solute concentration completely dissolved) (toluene, 100° C.): ≥ 0.3 wt %

CCCCC(CC)Cc1cc(-c2ccc(-c3c4c(c(-c5ccc(-c6ccc(C(F)(F)F)c(CC(CC)CCCC)c6)s5)c5nsnc35)N=S=N4)s2)ccc1C(F)(F)F (stereo not shown) [Compound (C30)]
solubility (solute concentration completely dissolved) (1-methylnaphthalene, 60° C.): ≥ 0.3 wt %
solubility (solute concentration completely dissolved) (chloroform, 60° C.): ≥ 0.2 wt %
solubility (solute concentration completely dissolved) (mesitylene, 80° C.): ≥ 0.3 wt %
solubility (solute concentration completely dissolved) (ortho-dichlorobenzene, 80° C.): ≥ 0.3 wt %
solubility (solute concentration completely dissolved) (toluene, 80° C.): ≥ 0.3 wt %

CCCCC(CC)Cc1ccc(-c2ccc(-c3c4c(c(-c5ccc(-c6ccc(CC(CC)CCCC)c(C(F)(F)F)c6)s5)c5nsnc35)N=S=N4)s2)cc1C(F)(F)F (stereo not shown) [Compound (C31)]
solubility (solute concentration completely dissolved) [1]: ≥ 0.3 wt %
solubility (solute concentration completely dissolved) [2]: ≥ 0.2 wt %
solubility (solute concentration completely dissolved) (mesitylene, 25° C.): ≥ 0.3 wt %
solubility (solute concentration completely dissolved) (ortho-dichlorobenzene, 25° C.): ≥ 0.3 wt %
solubility (solute concentration completely dissolved) (toluene, 25° C.): ≥ 0.3 wt %

FC(F)(F)Oc1ccc(-c2ccc(-c3c4c(c(-c5ccc(-c6ccc(OC(F)(F)F)cc6)s5)c5nsnc35)N=S=N4)s2)cc1 [Compound (RC1), 4,8-bis[5-(4-(trifluoromethoxy)phenyl)thiophene-2-yl]benzo[1,2-c:4,5-c′]bis[1,2,5]thiadiazole, reference compound]
solubility (solute concentration completely dissolved) (chlorobenzene, 100° C.): < 0.03 wt %
solubility (solute concentration completely dissolved) (mesitylene, 100° C.): < 0.03 wt %
solubility (solute concentration completely dissolved) (ortho-dichlorobenzene, 100° C.): < 0.03 wt %
solubility (solute concentration completely dissolved) (toluene, 100° C.): < 0.03 wt %

FC(F)(F)c1ccc(-c2ccc(-c3c4c(c(-c5ccc(-c6ccc(C(F)(F)F)cc6)s5)c5nsnc35)N=S=N4)s2)cc1 [Compound (RC2), 4,8-bis[5-(4-(trifluoromethyl)phenyl)thiophene-2-yl]benzo[1,2-c:4,5-c′]bis[1,2,5]thiadiazole, reference compound]
solubility (solute concentration completely dissolved) (chlorobenzene, 100° C.): < 0.03 wt %
solubility (solute concentration completely dissolved) (mesitylene, 100° C.): < 0.03 wt %
solubility (solute concentration completely dissolved) (mesitylene, 130° C.): < 0.3 wt %
solubility (solute concentration completely dissolved) (ortho-dichlorobenzene, 100° C.): < 0.03 wt %
solubility (solute concentration completely dissolved) (toluene, 100° C.): < 0.03 wt %

From US9978954B2, “Benzobis (thiadiazole) derivative, ink comprising same, and organic electronic device comprising same” (UBE INDUSTRIES, LTD., priority 2013, dated 2018)
